Where a name gives a salt, the structure may show the parent alone.
Target: T1, Integrin protein αvβ3 (Homo sapiens, UniProt P05106+P06756)
T1 construct: purchased Chemicon International, Inc., Temecula, Calif., USA
Experiment: Receptor/ligand challenge assay of biotinylated vitronectin binding to plate-coated integrin αvβ3 (chemiluminescence)
Details: for IC50: competition with biotinylated vitronectin for coated αvβ3, 3 hours at room temperature, quadruplicate, 0.00316-1000 nM; for IC50 Ratio Relative to Hood et al.: ratio of IC50 versus the Hood et al. antagonist in the same assay
Experimental: Receptor/Ligand Challenge Assay of Vitronectin to Integrin αvβ3 Receptor Antagonists in the Presence of Test Compounds
The title compounds of Examples 1 through 8 were tested for their activity as αvβ3 receptor antagonists by the procedure described below, and the buffers, solutions, and reagents used in the procedure are listed following the procedure.
Procedure. Integrin protein αvβ3 (purchased from Chemicon International, Inc., Temecula, Calif., USA) was diluted to a final concentration of 1 μg/mL in coating buffer (2.1). The αvβ3 coating solution was applied to 96-well polystyrene microtiter plate at 100 μL/well. (A total of 10 mL is needed to coat one 96-well plate). The plates were then sealed and allowed to incubate at 4° C. for at least 8 hours. The coating solution was then removed and the plate was washed two times with 300 μL/well of washing solution (2.2). Blocking buffer (2.3) was then added in amounts of 150 μL/well and the plate was incubated at room temperature for 2 hours. The blocking buffer was then removed, and the integrin antagonistic substances (117 μL of 1.25 μM (in H2O)) were added in quadruplicate to column 1 of the twelve well columns of the plate. For example, 117 μL of 1.25 μM 4-[2-(3,4,5,6-tetrahydropyrimidin-2 ylamino)ethyloxy]benzoyl-2-(S)-aminoethylsulfonylamino-β-alanine, the antagonist described by Hood et al. referenced above was added to column 1, rows A-D and 117 μL of 1.25 μM of the antagonist of Example 1 was added to column 1, […]. Binding buffer (2.4) (80 μL) was added to the remaining wells of the plate (column 2-12, rows A-F). A multichannel pipet was used to transfer 37 μL aliquots of the solutions from column 1 to column 2. The solutions were then mixed in the column 2 wells by drawing them up and down in the pipet 15 times. Solutions (37 μL) were then transferred from column 2 to column 3 and mixed by being drawn up and down in the pipet 15 times. The process was repeated across the columns to column 12, and the last 37 μL of solution was discarded. Biotinylated Vitronectin solution (2.5) was then added (20 μL/well, 0.1 μg/well). The final volume was 100 μL total per well, and the concentrations (nM) of analytes in columns 1-12 respectively were as follows: 1000, 316, 100, 31.6, 10.0, 3.16, 1.00, 0.316, 0.100, 0.0316, 0.01, and 0.00316.
The plate was agitated for thorough mixing of the solutions, then covered and incubated at room temperature for 3 hours. The solutions were then discarded and the plate was washed 3 times with 170 μL/well of washing solution (2.2). NeutrAvidin-HRP solution (2.6) was then added (100 μL/well, 0.01 μg/well), cover, and the plate was incubated at room temperature for 30 minutes. The solutions in the wells were then discarded and the plate was washed 3 times with 170 μL/well of washing solution (2.2). Chemiluminescent Substrate solution (2.7) was then added to the plate (100 μL/well), and the luminescence was read using the Wallac Victor 1420 Multilabel Counter (PerkinElmer, Inc., Boston, Mass., USA). A plot of average luminescence vs. concentration was generated using KaleidaGraph (version 3.5) software and the IC50 values were calculated using the following formula: Max−Max*M0^m1/(m2^m1+M0^m1);m1=1;m2=1, where Max is the maximum luminescence observed.
The results are expressed in the table below, both in terms of the 50% inhibitory concentration (IC50) of each test compound and the ratio of 50% inhibitory concentration (IC50) of the test compound to that of the Hood et al. antagonist 4-[2-(3,4,5,6-tetrahydropyrimidin-2-ylamino)ethyloxy]benzoyl-2-(S)-aminoethylsulfonylamino-β-alanine.

T1 sequence (P06756 31-889 limits assumed): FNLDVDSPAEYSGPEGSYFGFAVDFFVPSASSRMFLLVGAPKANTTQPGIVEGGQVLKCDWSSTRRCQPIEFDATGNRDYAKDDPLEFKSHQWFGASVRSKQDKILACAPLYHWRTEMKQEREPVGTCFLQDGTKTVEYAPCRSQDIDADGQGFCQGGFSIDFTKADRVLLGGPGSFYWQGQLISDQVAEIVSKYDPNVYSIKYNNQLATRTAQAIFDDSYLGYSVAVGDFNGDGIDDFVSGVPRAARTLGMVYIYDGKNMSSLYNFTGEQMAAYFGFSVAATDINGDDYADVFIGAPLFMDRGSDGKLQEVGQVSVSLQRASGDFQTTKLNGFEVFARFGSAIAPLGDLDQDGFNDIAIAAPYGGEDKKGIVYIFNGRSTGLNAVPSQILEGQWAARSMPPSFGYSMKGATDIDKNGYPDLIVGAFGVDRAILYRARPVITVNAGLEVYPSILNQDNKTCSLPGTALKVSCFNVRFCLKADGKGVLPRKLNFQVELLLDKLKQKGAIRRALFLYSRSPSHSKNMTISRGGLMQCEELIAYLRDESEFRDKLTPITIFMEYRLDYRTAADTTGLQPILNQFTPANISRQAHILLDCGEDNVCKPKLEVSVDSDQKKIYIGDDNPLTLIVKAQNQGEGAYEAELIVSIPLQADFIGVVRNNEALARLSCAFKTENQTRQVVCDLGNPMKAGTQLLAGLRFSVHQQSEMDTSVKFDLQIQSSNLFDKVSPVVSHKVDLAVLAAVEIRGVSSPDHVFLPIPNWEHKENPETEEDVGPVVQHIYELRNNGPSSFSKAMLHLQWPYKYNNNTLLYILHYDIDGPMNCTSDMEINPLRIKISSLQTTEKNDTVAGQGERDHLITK
T1 sequence (P06756 891-1048 limits assumed): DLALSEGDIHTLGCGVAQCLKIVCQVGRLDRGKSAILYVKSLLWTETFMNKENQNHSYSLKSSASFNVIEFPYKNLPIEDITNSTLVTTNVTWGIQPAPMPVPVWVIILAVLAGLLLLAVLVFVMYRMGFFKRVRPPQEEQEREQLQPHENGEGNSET
T1 sequence (P05106 27-788): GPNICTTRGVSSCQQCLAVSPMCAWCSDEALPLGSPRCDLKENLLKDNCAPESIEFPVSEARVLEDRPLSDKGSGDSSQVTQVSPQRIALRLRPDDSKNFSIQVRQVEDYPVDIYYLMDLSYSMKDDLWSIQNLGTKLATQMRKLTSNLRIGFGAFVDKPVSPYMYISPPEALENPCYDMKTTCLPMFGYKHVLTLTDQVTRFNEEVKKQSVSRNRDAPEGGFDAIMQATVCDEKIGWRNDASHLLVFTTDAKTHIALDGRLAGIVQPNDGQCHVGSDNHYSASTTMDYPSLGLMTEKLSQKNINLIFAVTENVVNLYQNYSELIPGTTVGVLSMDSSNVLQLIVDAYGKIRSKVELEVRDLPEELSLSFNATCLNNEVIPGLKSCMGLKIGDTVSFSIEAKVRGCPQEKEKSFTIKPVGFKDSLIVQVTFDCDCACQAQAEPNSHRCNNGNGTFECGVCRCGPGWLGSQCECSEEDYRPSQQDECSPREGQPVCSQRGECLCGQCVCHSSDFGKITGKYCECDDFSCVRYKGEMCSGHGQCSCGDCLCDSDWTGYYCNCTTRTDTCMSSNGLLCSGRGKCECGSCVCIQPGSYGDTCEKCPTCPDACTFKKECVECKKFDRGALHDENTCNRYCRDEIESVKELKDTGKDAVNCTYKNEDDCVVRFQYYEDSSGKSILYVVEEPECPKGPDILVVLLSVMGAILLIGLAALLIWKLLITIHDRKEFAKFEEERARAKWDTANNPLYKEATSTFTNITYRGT

SMILES	IC50 [nM]	IC50 Ratio Relative to Hood et al.
CC(C)(CN)COC(=O)NCCS(=O)(=O)N[C@@H](CNC(=O)c1ccc(OCCNC2=NCCCN2)cc1)C(=O)O [Example 2, 4-[2-(3,4,5,6-Tetrahydropyrimidin-2-ylamino)ethyloxy]benzoyl-2-(S)-[N-(3-amino-neopenta-1-carbamyl)]-aminoethylsulfonylamino-β-alanine Hydrochloride]	2.94 ± 0.19	7.0 ± 0.7
NCCOC(=O)NCCS(=O)(=O)N[C@@H](CNC(=O)c1ccc(OCCNC2=NCCCN2)cc1)C(=O)O [Example 4, 4-[2-(3,4,5,6-Tetrahydropyrimidin-2-ylamino)ethyloxy]benzoyl-2-(S)-[N-(3-amino-ethyl-1-carbamyl)]-aminoethylsulfonylamino-β-alanine]	3.64 ± 0.3	4.3 ± 0.6
NCCCOC(=O)NCCS(=O)(=O)N[C@@H](CNC(=O)c1ccc(OCCNC2=NCCCN2)cc1)C(=O)O [Example 6]	6.68 ± 0.54	3.6 ± 0.7
NCCCCOC(=O)NCCS(=O)(=O)N[C@@H](CNC(=O)c1ccc(OCCNC2=NCCCN2)cc1)C(=O)O [Example 8, 4-[2-(3,4,5,6-Tetrahydropyrimidin-2-ylamino)ethyloxy]benzoyl-2-(S)-[N-(3-amino-butyl-1-carbamyl)]-aminoethylsulfonylamino-β-alanine]	3.13 ± 0.33	1.3 ± 0.5
NCCS(=O)(=O)N[C@@H](CNC(=O)c1ccc(OCCNC2=NCCCN2)cc1)C(=O)O [Hood et al., 4-[2-(3,4,5,6-tetrahydropyrimidin-2-ylamino)ethyloxy]benzoyl-2-(S)-aminoethylsulfonylamino-β-alanine, reference compound]	14.1 ± 1.4	–

Now those with a lower IC50, led by results:

IC50 [nM]	IC50 Ratio Relative to Hood et al.	SMILES
0.72 ± 0.08	17.3 ± 4.7	CCCCOC(=O)NCC(C)(C)COC(=O)NCCS(=O)(=O)N[C@@H](CNC(=O)c1ccc(OCCNC2=NCCCN2)cc1)C(=O)O [Example 1, 4-[2-(3,4,5,6-Tetrahydropyrimidin-2-ylamino)ethyloxy]benzoyl-2-(S)-[N-(3-butyloxycarbonylamino-neopenta-1-carbamyl)]-aminoethylsulfonylamino-β-alanine]
1.7 ± 0.2	8.8 ± 3.5	CCCCOC(=O)NCCOC(=O)NCCS(=O)(=O)N[C@@H](CNC(=O)c1ccc(OCCNC2=NCCCN2)cc1)C(=O)O [Example 3, 4-[2-(3,4,5,6-Tetrahydropyrimidin-2-ylamino)ethyloxy]benzoyl-2-(S)-[N-(3-butyloxycarbonylamino-ethyl-1-carbamyl)]-aminoethylsulfonylamino-β-alanine]
1.02 ± 0.12	11.2 ± 2.4	CCCCOC(=O)NCCCOC(=O)NCCS(=O)(=O)N[C@@H](CNC(=O)c1ccc(OCCNC2=NCCCN2)cc1)C(=O)O [Example 5, 4-[2-(3,4,5,6-Tetrahydropyrimidin-2-ylamino)ethyloxy]benzoyl-2-(S)-[N-(3-butyloxycarbonylamino-propyl-1-carbamyl)]-aminoethylsulfonylamino-β-alanine]
1.34 ± 0.14	10.8 ± 2.7	CCCCOC(=O)NCCCCOC(=O)NCCS(=O)(=O)N[C@@H](CNC(=O)c1ccc(OCCNC2=NCCCN2)cc1)C(=O)O [Example 7, 4-[2-(3,4,5,6-Tetrahydropyrimidin-2-ylamino)ethyloxy]benzoyl-2-(S)-[N-(3-butyloxycarbonylamino-butyl-1-carbamyl)]-aminoethylsulfonylamino-β-alanine]
